Measured values reported in US11820756B2, “Bradykinin B2 receptor antagonists” (Pharvaris Netherlands B.V., priority 2017, dated 2023).

target: T1, human bradykinin B2 receptor (hB2R) (Homo sapiens, UniProt P30411); test: cell-based human bradykinin B2 receptor calcium mobilization (hB2R-CaM) assay; conditions: HTS041C cells, bradykinin at EC80, calcium mobilization; read-out: IC50-value towards human bradykinin B2 receptor (hB2R)
T1 sequence (P30411 1-391): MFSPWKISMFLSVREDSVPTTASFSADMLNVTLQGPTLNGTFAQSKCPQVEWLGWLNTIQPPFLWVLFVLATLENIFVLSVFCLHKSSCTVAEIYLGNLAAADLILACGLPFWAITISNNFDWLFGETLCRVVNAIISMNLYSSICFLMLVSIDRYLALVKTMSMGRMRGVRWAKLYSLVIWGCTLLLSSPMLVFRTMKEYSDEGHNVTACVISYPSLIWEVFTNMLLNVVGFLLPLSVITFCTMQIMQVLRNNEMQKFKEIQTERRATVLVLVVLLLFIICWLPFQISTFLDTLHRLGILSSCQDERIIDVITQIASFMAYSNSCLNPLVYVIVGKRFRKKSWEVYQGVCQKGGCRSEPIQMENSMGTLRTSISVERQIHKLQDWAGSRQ
In short: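 HTS041C cells stably expressing hB2R were serum-reduced, loaded with Calcium 6 dye and pre-incubated with compound (8-point, n=2, 0.1% DMSO) for 25 min at 37° C. Bradykinin was then added at EC80. IC50 came from a 4-parameter logistic fit of the max-min fluorescence signal (485/525 nm).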

Row | SMILES | IC50 [nM]
1 | Cc1cc(-n2cc(F)cn2)c2cccc(OCc3c(Cl)cc(F)cc3[C@H](C)NC(=O)c3cncs3)c2n1 [Compound 90] | ≤ 50
2 | Cc1cc(-c2[nH]ncc2C)c2cccc(OCc3c(Cl)cc(F)cc3[C@H](C)NC(=O)COC(F)F)c2n1 [Compound 185] | ≤ 50
3 | Cc1cc(-n2cc(F)cn2)c2cccc(OCc3c(Cl)cc(F)cc3[C@H](C)NC(=O)C3CCC(C)(C)O3)c2n1 (stereo partly shown) [Compound 109] | 51 to 250
4 | Cc1cc(-c2[nH]ncc2C)c2cccc(OCc3c(Cl)cc(F)cc3[C@H](C)NC(=O)C(F)F)c2n1 [Compound 186] | 51 to 250
5 | CC[C@H](NC(=O)COC(F)F)c1cc(F)cc(Cl)c1COc1cccc2c(-c3ncnn3C)cc(C)nc12 [Compound 131] | ≤ 50
6 | Cc1cc(-c2ncnn2C)c2cccc(OCc3c(Cl)cc(F)cc3[C@H](C)NC(=O)C(F)F)c2n1 [Compound 147] | ≤ 50
7 | Cc1cc(-n2cc(F)cn2)c2cccc(OCc3c(Cl)cc(F)cc3[C@H](C)NC(=O)[C@H]3CCOC3)c2n1 [Compound 15] | ≤ 50
8 | Cc1cc(-n2cc(F)cn2)c2cccc(OCc3c(Cl)cc(F)cc3[C@H](C)NC(=O)C3CCO3)c2n1 (stereo partly shown) [Compound 56] | ≤ 50
9 | CC[C@@H](O)C(=O)N[C@@H](C)c1cc(F)cc(Cl)c1COc1cccc2c(-n3cnc(C)n3)cc(C)nc12 [Compound 100] | 251 to 1000
10 | COCC(=O)N[C@@H](C)c1cc(F)cc(Cl)c1COc1cccc2c(-c3ncnn3C)cc(C)nc12 [Compound 83] | ≤ 50
11 | Cc1cc(-n2cc(F)cn2)c2cccc(OCc3c(Cl)cc(F)cc3[C@H](C)NC(=O)[C@H](O)C(C)C)c2n1 [Compound 67] | 51 to 250
12 | Cc1cc(-n2ncnc2C)c2cccc(OCc3c(Cl)cc(F)cc3[C@H](C)NC(=O)c3coc(C)n3)c2n1 [Compound 156] | ≤ 50
13 | Cc1cc(-n2cc(F)cn2)c2cccc(OCc3c(Cl)cc(F)cc3[C@H](C)NC(=O)C(C)(C)O)c2n1 [Compound 23] | 51 to 250
14 | Cc1cc(-n2cc(F)cn2)c2cccc(OCc3c(Cl)cc(F)cc3[C@H](C)NC(=O)[C@H](C)CO)c2n1 [Compound 59] | ≤ 50
15 | Cc1cc(-c2ncnn2C)c2cccc(OCc3c(Cl)cc(F)cc3[C@H](C)NC(=O)[C@@H](C)O)c2n1 [Compound 63] | ≤ 50
16 | CC[C@H](NC(=O)c1cocn1)c1cc(F)cc(Cl)c1COc1cccc2c(-n3ncnc3C)cc(C)nc12 [Compound 165] | ≤ 50
17 | Cc1cc(-c2ncnn2C)c2cccc(OCc3c(Cl)cc(F)cc3[C@H](C)NC(=O)c3cc(C)on3)c2n1 [Compound 127] | ≤ 50
18 | Cc1cc(-n2nc(C)nc2C)c2cccc(OCc3c(Cl)cc(F)cc3[C@H](C)NC(=O)COC(F)F)c2n1 [Compound 134] | ≤ 50
19 | Cc1cc(-n2cc(F)cn2)c2cccc(OCc3c(Cl)cc(F)cc3[C@H](C)NC(=O)c3cc(C)on3)c2n1 [Compound 88] | 51 to 250
20 | Cc1cc(-n2cnc(C)n2)c2cccc(OCc3c(Cl)cc(F)cc3[C@H](C)NC(=O)COC(F)F)c2n1 [Compound 10, (S)—N-(1-(3-chloro-5-fluoro-2-((2-methyl-4-(3-methyl-1H-1,2,4-triazol-1-yl)quinolin-8-yloxy)methyl)phenyl)ethyl)-2-(difluoromethoxy)acetamide] | 51 to 250
21 | Cc1cc(-n2cc(F)cn2)c2cccc(OCc3c(Cl)cc(F)cc3[C@H](C)NC(=O)c3cc(C)n(C)n3)c2n1 [Compound 86] | 51 to 250
22 | COCC(=O)N[C@@H](C)c1cc(F)cc(Cl)c1COc1cccc2c(-n3cc(F)cn3)cc(C)nc12 [Compound 12] | ≤ 50
23 | Cc1cc(-n2ncnc2C)c2cccc(OCc3c(Cl)cc(F)cc3[C@H](C)NC(=O)C(C)(F)F)c2n1 [Compound 180] | ≤ 50
24 | Cc1cc(-c2ncnn2C)c2cccc(OCc3c(Cl)cc(F)cc3[C@H](C)NC(=O)c3cccnc3)c2n1 [Compound 162] | ≤ 50
25 | Cc1cc(-n2ncnc2C)c2cccc(OCc3c(Cl)cc(F)cc3[C@H](C)NC(=O)C(F)F)c2n1 [Compound 174] | ≤ 50
26 | Cc1cc(-n2cc(F)cn2)c2cccc(OCc3c(Cl)cc(F)cc3[C@H](C)NC(=O)[C@@H](O)CCN(C)C)c2n1 [Compound 72] | 251 to 1000
27 | Cc1cc(-n2nc(C)nc2C)c2cccc(OCc3c(Cl)cc(F)cc3[C@H](C)NC(=O)COC(F)(F)F)c2n1 [Compound 139] | ≤ 50
28 | CCc1ncnn1-c1cc(C)nc2c(OCc3c(Cl)cc(F)cc3[C@H](C)NC(=O)COC(F)F)cccc12 [Compound 169] | ≤ 50

Row | SMILES | IC50 [nM]
29 | CO[C@@H](C)C(=O)N[C@@H](C)c1cc(F)cc(Cl)c1COc1cccc2c(-n3nccn3)cc(C)nc12 [Compound 29] | ≤ 50
30 | COC(=O)[C@H](O)CC(=O)N[C@@H](C)c1cc(F)cc(Cl)c1COc1cccc2c(-n3cc(F)cn3)cc(C)nc12 [Compound 69] | 51 to 250
31 | Cc1cc(-c2ncnn2C)c2cccc(OCc3c(Cl)cc(F)cc3[C@H](C)NC(=O)CC(F)(F)F)c2n1 [Compound 177] | ≤ 50
32 | [2H]C([2H])([2H])[C@]([2H])(NC(=O)COC(F)F)c1cc(F)cc(Cl)c1COc1cccc2c(-c3ncnn3C)cc(C)nc12 [Compound 11A, N-[(1S)-1-[3-chloro-5-fluoro-2-({[2-methyl-4-(1-methyl-1H-1,2,4-triazol-5-yl)quinolin-8-yl]oxy}methyl)phenyl](1,2,2,2-^2H4)ethyl]-2-(difluoromethoxy)acetamide] | ≤ 50
33 | [2H][C@@](C)(NC(=O)CC(F)(F)F)c1cc(F)cc(Cl)c1COc1cccc2c(-c3ncnn3C)cc(C)nc12 [Compound 181] | ≤ 50
34 | Cc1cc(-n2cc(F)cn2)c2cccc(OCc3c(Cl)cc(F)cc3[C@H](C)NC(=O)[C@@H]3COC(=O)N3)c2n1 [Compound 111] | 51 to 250
35 | Cc1cc(-c2ncnn2C)c2cccc(OCc3c(Cl)cc(F)cc3[C@H](C)NC(=O)c3cc(C)n(C)n3)c2n1 [Compound 129] | ≤ 50
36 | [2H][C@@](C)(NC(=O)C(F)F)c1cc(F)cc(Cl)c1COc1cccc2c(-c3ncnn3C)cc(C)nc12 [Compound 183] | ≤ 50
37 | Cc1cc(-c2ccnn2C)c2cccc(OCc3c(Cl)cc(F)cc3[C@H](C)NC(=O)[C@H](C)O)c2n1 [Compound 195] | ≤ 50
38 | Cc1cc(-c2ncnn2C)c2cccc(OCc3c(Cl)cc(F)cc3[C@H](C)NC(=O)[C@@H](C)F)c2n1 [Compound 204] | ≤ 50
39 | CCn1ncnc1-c1cc(C)nc2c(OCc3c(Cl)cc(F)cc3[C@H](C)NC(=O)COC(F)(F)F)cccc12 [Compound 145] | ≤ 50
40 | [2H][C@@](C)(NC(=O)C(C)(F)F)c1cc(F)cc(Cl)c1COc1cccc2c(-c3ncnn3C)cc(C)nc12 [Compound 182] | ≤ 50
41 | Cc1cc(-n2cc(F)cn2)c2cccc(OCc3c(Cl)cc(F)cc3[C@H](C)N(C)C(=O)CO)c2n1 [Compound 102] | ≤ 50
42 | CC[C@@H](O)C(=O)N[C@@H](C)c1cc(F)cc(Cl)c1COc1cccc2c(-n3ncnc3C)cc(C)nc12 [Compound 99] | 51 to 250
43 | [2H][C@@](C)(NC(=O)CC(F)F)c1cc(F)cc(Cl)c1COc1cccc2c(-c3ncnn3C)cc(C)nc12 [Compound 210] | ≤ 50
44 | CCn1ncnc1-c1cc(C)nc2c(OCc3c(Cl)cc(F)cc3[C@H](C)NC(=O)c3ccon3)cccc12 [Compound 141] | ≤ 50
45 | Cc1cc(-c2ncnn2C)c2cccc(OCc3c(Cl)cc(F)cc3[C@H](C)NC(=O)CC(F)F)c2n1 [Compound 197] | ≤ 50
46 | Cc1cc(-n2cc(F)cn2)c2cccc(OCc3c(Cl)cc(F)cc3[C@H](C)NC(=O)c3ccccn3)c2n1 [Compound 123] | 51 to 250
47 | Cc1cc(-n2ncnc2C)c2cccc(OCc3c(Cl)cc(F)cc3[C@H](C)NC(=O)c3ccon3)c2n1 [Compound 157] | ≤ 50
48 | Cc1cc(-c2ncnn2C)c2cccc(OCc3c(Cl)cc(F)cc3[C@H](C)NC(=O)COCC3CC3)c2n1 [Compound 117] | ≤ 50
49 | Cc1cc(-c2ccnn2C)c2cccc(OCc3c(Cl)cc(F)cc3[C@H](C)NC(=O)[C@@H](C)O)c2n1 [Compound 192] | ≤ 50
50 | Cc1cc(-n2cc(F)cn2)c2cccc(OCc3c(Cl)cc(F)cc3[C@H](C)N(C)C(=O)[C@H](C)Cl)c2n1 [Compound 103] | 51 to 250
51 | CC[C@H](NC(=O)c1cocn1)c1cc(F)cc(Cl)c1COc1cccc2c(-c3ncnn3C)cc(C)nc12 [Compound 155] | ≤ 50
52 | Cc1cc(-c2ncnn2C)c2cccc(OCc3c(Cl)cc(F)cc3[C@H](CO)NC(=O)c3cnco3)c2n1 [Compound 191] | ≤ 50
53 | Cc1cc(-n2nc(C)nc2C)c2cccc(OCc3c(Cl)cc(F)cc3[C@H](C)NC(=O)C(C)(C)O)c2n1 [Compound 138] | 51 to 250
54 | Cc1cc(-c2ncnn2C)c2cccc(OCc3c(Cl)cc(F)cc3[C@H](C)NC(=O)[C@H](C)F)c2n1 [Compound 203] | ≤ 50
55 | CCc1ncnn1-c1cc(C)nc2c(OCc3c(Cl)cc(F)cc3[C@H](C)NC(=O)C(C)(C)O)cccc12 [Compound 171] | ≤ 50
